Key:
[1] = Intravenous pharmacokinetics in rats; assay type: in vivo, male Wistar rats; settings: i.v. 1 mg/kg; for opicapone pharmacokinetic profile after intravenous prodrug (comparison): FIG. 4b; for AUC(0-t): read-out: AUClast of prodrug; for half-life: read-out: t1/2 of prodrug (converted); for Vd / clearance: plasma; for clearance: read-out: CL of prodrug (converted)
Description: The pharmacokinetic properties of compounds 1 and 4 compared to micronized crystalline opicapone were assessed by intravenous injection to 3 male Wistar rats (1 mg/kg; DMSO:20% HPBCD (1:9).
(§1) During the studies, blood was collected at different time points, from jugular vein, spun at 1500×g in a refrigerated centrifuge (4° C.) for 15 min, and the plasma obtained was stored at −80° C. until further analysis. The plasma samples collected were analysed for compound 1, compound 4 and opicapone exposure. The bioanalysis involved the use of LC-MS/MS after plasma precipitation.

[2] = In vitro stability in rat liver S9 fraction; assay type: in vitro ADME; settings: 1 μM; S9 1 mg/mL; after 0.75 h
Description: (§2) The stability of 1 μM of compound 1 was assessed in the following fractions: phosphate buffer, human plasma, rat plasma, human liver S9 fraction, rat liver S9 fraction and rat liver homogenates.
(§3) Reaction was initiated by adding of 1 μM of test compound to the desired matrix (plasma, liver homogenate at 0.4 g/mL or S9 fraction at 1 mg/mL, respectively), with a final volume of 350 μL. At the following time points 0, 5, 15, 30, 45, 60 min, 50 μL of sample is taken and precipitated with 200 μL of acetonitrile 1% formic acid containing the internal standard (opicapone ^13C6) at 1 μM. Samples were centrifuged at 20,000 g at 4° C. for 10 min, and then analysed by LC-MS/MS using a bioanalytical method previously developed in-house.
(§4) The stability of 1 μM of compound 4 was assessed in the following fractions: phosphate buffer, human plasma, rat plasma, human liver S9 fraction, rat liver S9 fraction and rat liver homogenates.
(§5) Reaction was initiated by adding 1 μM of test compound to the desired matrix (plasma or S9 fraction at 1 mg/mL), with a final volume of 250 μL. […] Samples were centrifuged at 20,000 g at 4° C. for 10 min, and then analysed by LC-MS/MS using bioanalytical methods previously developed in-house. […]

[3] = In vitro stability in rat plasma; assay type: in vitro ADME; settings: 1 μM; after 0.75 h
Description: as §2, §3, §4, §5

[4] = In vitro stability in potassium phosphate buffer pH 7.4; assay type: physicochemical; settings: 1 μM, after 0.75 h
Description: as §2, §3
Solutions of the test compounds were prepared at 10 μM using 50 mM potassium phosphate buffer (KPB) at pH 7.4, by adding 1 μL of compound stock at 10 mM to 999 μL KPB 50 mM. […]
as §4, §5

[5] = In vitro stability in human liver S9 fraction; assay type: in vitro ADME; settings: 1 μM; S9 1 mg/mL; after 0.75 h
Description: as §2, §3, §4, §5

[6] = In vitro stability in human plasma; assay type: in vitro ADME; settings: 1 μM; after 0.75 h
Description: as §2, §3, §4, §5

[7] = Oral pharmacokinetics in rats; assay type: in vivo, male Wistar rats; settings: p.o. 3 mg/kg; for Cmax / Tmax / AUC(0-t): male, Wistar, po, rat plasma, analyte prodrug; for AUC(0-t): read-out: AUClast of prodrug; for opicapone pharmacokinetic profile after oral prodrug (comparison): FIG. 3b
Description: The pharmacokinetic properties of compounds 1 and 4 compared to micronized crystalline opicapone were assessed by oral administrations to 4 male Wistar rats (3 mg/kg; 0.2% HPMC).
as §1, with “tail” for “jugular”

[8] = Stability in buffer at pH 1.2, 4.5 and 6.8; assay type: physicochemical; settings: 2500 ng/mL, 37° C.; for stability in buffer at pH 1.2 / stability in buffer at pH 4.5 / stability in buffer at pH 6.8: 4 hours
Description: The stability of 2500 ng/mL of compounds 1 and 4 was assessed at different pH values of 1.2, 4.5 and 6.8 over 4 hours at 37° C. • Buffer solutions were prepared as follows: • Buffer solution pH 1.2: • To prepare 1L: • 3.73 g potassium chloride • 7 mL HCl37% • Add purified water • Check/Adjust pH to 1.20±0.05 (using solutions: HCl 1M and/or NaOH 1M) • Buffer solution pH 4.5 • To prepare 1L: • 2.99 g sodium acetate trihydrate • 14 mL acetic acid 2M • Add purified water • Check/Adjust pH to 4.50±0.05 (using solutions: acetic acid 2M and/or NaOH 1M) • Buffer solution pH 6.8 • To prepare 1L: • 6.81 g potassium dihydrogen phosphate • 22 mL NaOH 1M • Add purified water • Check/Adjust pH to 6.80±0.05 (using solutions: HCl 1M and/or NaOH 1M)

[9] = In vitro stability / conversion to opicapone in rat liver homogenates; assay type: in vitro ADME; settings: 1 μM
Description: as §2, §3, §4
Reaction was initiated by adding 1 μM of test compound to the desired matrix (plasma or S9 fraction at 1 mg/mL), with a final volume of 250 μL. For plasma, at the time points of 0, 15, 30, 45 and 60 min of incubation, 50 μL of sample is taken and precipitated with 100 μL of internal standard working solution (ISWS) consisting of acetonitrile 1% formic acid containing the internal standard (opicapone ^13C6) at 1 μM. For S9 fraction, 50 μL of sample was taken and precipitated with 100 μL of ISWS after 60 min of incubation. For rat liver homogenates (0.2 g/mL of protein), reaction was initiated by adding of 1 μM of test compound with a final volume of 350 μL. At the following time points of 0, 5, 15, 30, 45, 60 min of incubation, 50 μL of sample is taken and precipitated with 200 μL ISWS. Samples were centrifuged at 20,000 g at 4° C. for 10 min, and then analysed by LC-MS/MS using bioanalytical methods previously developed in-house. Compound 4 was stable in all matrices with exception of rat liver homogenates, where the remaining compound was of approximately 31%, after 60 min of incubation. Solutions of the test compounds were prepared at 10 μM using 50 mM potassium phosphate buffer (KPB) at pH 7.4, by adding 1 μL of compound stock at 10 mM to 999 μL KPB 50 mM.

[10] = male, Wistar, iv, rat plasma, analyte prodrug
[11] = male, Wistar, iv, rat, analyte prodrug

SMILES	opicapone pharmacokinetic profile after intravenous prodrug (comparison) ([1]; rat)	C0 [1, 10]	AUC(0-t) [1, 10]	half-life [1, 10]	Vd [1, 11]	clearance [1, 11]	stability in rat liver S9 fraction [2]	stability in rat plasma [3]	stability in buffer [4]	stability in human liver S9 fraction [5]	stability in human plasma [6]	Cmax [7]	Tmax [7]	AUC(0-t) [7]	opicapone pharmacokinetic profile after oral prodrug (comparison) ([7]; rat)	stability in buffer at pH 1.2 [8]	stability in buffer at pH 4.5 [8]	stability in buffer at pH 6.8 [8]	conversion to opicapone in rat liver homogenates [9]	further results
Cc1c(Cl)c(C)[n+]([O-])c(Cl)c1-c1noc(-c2cc(OP(=O)(O)O)c(O)c([N+](=O)[O-])c2)n1 [Compound 1, 2,5-dichloro-3-(5-(4-hydroxy-3-nitro-5-(phosphonooxy)phenyl)-1,2,4-oxadiazol-3-yl)-4,6-dimethylpyridine 1-oxide]	comparable to opicapone itself	29400 ng/mL	30700 ng·h/mL	156 min	0.123 L/kg	0.643 mL/min/kg	stable	stable	stable	stable	stable	146 ng/mL	30 min	417 ng·h/mL	comparable to opicapone itself	stable	stable	stable	successfully converted to opicapone	intravenous pharmacokinetic properties of the prodrug (comparison) ([1]; rat, FIG. 4a): improved pharmacokinetic properties compared to compound 4; oral pharmacokinetic properties of the prodrug (comparison) ([7]; rat, FIG. 3a): improved pharmacokinetic properties compared to compound 4; solubility in buffer at pH 1.2 [8]: not immediately soluble; % remaining of the parent compound ([9]; rat liver homogenate 0.4 g/mL, after 0.5 h): less than 25%
Cc1c(Cl)c(C)[n+]([O-])c(Cl)c1-c1noc(-c2cc(OCOP(=O)(O)O)c(O)c([N+](=O)[O-])c2)n1 [Compound 4, 2,5-dichloro-3-(5-(4-hydroxy-3-nitro-5-((phosphonooxy)methoxy)phenyl)-1,2,4-oxadiazol-3-yl)-4,6-dimethylpyridine 1-oxide]	worse intravenous pharmacokinetic parameters	21900 ng/mL	4990 ng·h/mL	174 min	1.99 L/kg	3.58 mL/min/kg	stable	stable	stable	stable	stable	32.5 ng/mL	30 min	26.5 ng·h/mL	worse oral pharmacokinetic parameters	stable	stable	stable	successfully converted to opicapone	Tmax [1, 10]: 4.8 min; remaining compound ([9]; rat liver homogenates 0.2 g/mL, after 60 min of incubation): approximately 31%

Reference: patent publication US20260103479A1, “PRODRUGS OF OPICAPONE” (BIAL- PORTELA & CA, S.A., priority 2022, published 2026)
